# Data reported in patent US20090176873A1, “NOVEL USE OF ORGANIC COMPOUNDS” (DSM IP ASSETS B.V., priority 2005, published 2009).
# Where two headings read alike, the source gives them in different places.
# What was measured:
# PGE2 production = experiment: Inhibition of PGE2 formation in LPS-stimulated RAW 264.7 macrophages (EIA); type: cell-based, murine; conditions: Mus musculus, read-out: PGE2 Production by RAW Cells IC50
# Procedure: (§1) The anti-inflammatory effects of the compounds were evaluated in activated macrophages by determining the inhibition of the synthesis of nitric oxide and/or PGE2. In order to induce an in vitro “inflammatory response”, murine macrophages RAW264.7 were stimulated with lipopolysaccharide (LPS) without or with graded amounts of the test substances. Murine macrophages RAW 264.7 cells respond to LPS-stimulation by the release of substantial amounts of Prostaglandin E2 (PGE2) and nitric oxide (NO), which is impaired by anti-inflammatory compounds. Prostaglandins PGE2 play a critical role in the inflammation process, while nitric oxide is a hallmark of inflammation in conditions like arthritis. Therefore, we evaluated the effect of the compounds on PGE2 and NO production.
# RAW 264.7 cells: were cultured in Dulbecco's Modified eagle Medium (DMEM) supplemented with 10% fetal calf serum (FCS), 50 units/ml penicillin, 50 μg/ml streptomycin, L-glutamine and nonessential amino acids (NEM, Life Technologies, No. 11140). RAW cells were used between passage 10 and 50. For the experiments, cells were seeded into 6-well, 12-well or 96-well plates at 2, 1 and 0.05 mio cells per well, respectively, and used after 1 or 2 days of pre-culture. Cells were starved in complete DMEM medium containing 0.25% FCS 18 hours before the treatment. Cells were stimulated with LPS (1 μg/ml) for 24 hours in phenol-free DMEM containing 0.25% FCS. Substances to be tested were dissolved in DMSO (usually at 10 mM) and added to the culture medium concomitantly with the stimulus. […] After 24 hours nitrite concentrations were measured in culture supernatants by the Griess reaction and secreted PGE2 was determined by Enzyme immunoassay (EIA) in unstimulated and LPS-stimulated RAW264.7 cells. The compounds were simultaneously tested at different concentrations to obtain a dose response curve. […] The effects of compounds of the formula (I) on PGE2 production was also measured in the murine macrophage cell line RAW 264.7 (Table 1).
# [1] = tested on: adhesion of U937 to human umbilical cord endothelial cells (HUVEC); experiment: Adhesion of U937 monocytes to TNF-α stimulated HUVEC; type: cell-based; conditions: 20 hours stimulation
# Procedure: (§2) Artherosclerotic lesions can develop as a consequence of endothelial dysfunction. This is reflected by altered i.e. increased adhesion of monocytes to endothelial layers. We evaluated the effect of ligustilide on adhesion of U937, a monocyte cell line, to human umbilical cord endothelial cells (HUVEC). HUVEC were stimulated with TNF-α in the absence or presence of ligustilide (25 or 50 μmol/L) for 20 hours and the adhesion of U937 was determined according to Carluccio et al. (Arterioscler Thromb Vasc Biol 2003; 23, 622-629). […] Adhesion of monocytes to endothelial layers is mediated by the expression of intercellular adhesion molecule 1 (ICAM-1). Therefore, we further analyzed the effects of ligustilide on the level of ICAM-1 mRNA in HUVEC by quantitative RT-PCR.
# [2] = tested on: intercellular adhesion molecule 1 (ICAM-1) mRNA; experiment: ICAM-1 mRNA level in TNF-α stimulated HUVEC, quantitative RT-PCR; type: cell-based, human; conditions: 2 hours of stimulation
# Procedure: as §2
# MMP-9 = experiment: Gene expression in IL-1β activated chondrocytes, RT-PCR; type: cell-based; conditions: 4 hours, SW1353 or normal human chondrocytes, concentration not given
# Procedure: (§3) Articulate tissues i.e. joints contain chondrocytes. Their physiological deterioration leads to the erosion of joint tissue components and thus to e.g. osteoarthritis. We have evaluated the effect of ligustilide on catabolic events in chondrocytes. SW1353 chondrosarcoma cells or normal human chondrocytes (derived from knee) were activated with interleukin-1β in the presence of graded amount of test compounds for 4 hours. RNA was then extracted from these cells and reverse-transcribed. Expression of marker genes for catabolic events like matrix metalloproteinases (MMPs) was determined by quantitative real time polymerase chain reaction (RT-PCR). As shown in Table 5 ligustilide influenced the expression level of several MMPs, which are critically involved in the destruction of extracellular matrix. Ligustilide reduced its expression and thus is supposed to prevent tissue erosion in osteoarthritic diseases.
# MMP-13 = experiment: as above; type: cell-based; conditions: 4 hours, SW1353 or normal human chondrocytes, concentration not given
# Procedure: as §3
# Collagen 1 = experiment: as above; type: cell-based; conditions: 4 hours, SW1353 or normal human chondrocytes, concentration not given
# Procedure: as §3
# MMP-3 = experiment: as above; type: cell-based; conditions: 4 hours, SW1353 or normal human chondrocytes, concentration not given
# Procedure: as §3
# Collagen 2 = experiment: as above; type: cell-based; conditions: 4 hours, SW1353 or normal human chondrocytes, concentration not given
# Procedure: as §3
# MMP-1 = experiment: as above; type: cell-based; conditions: 4 hours, SW1353 or normal human chondrocytes, concentration not given
# Procedure: as §3
# COX-2 = experiment: Gene expression in LPS-stimulated THP-1 cells, quantitative RT-PCR; type: cell-based, human; conditions: THP-1, ligustilide 25 μM, LPS 1 μg/ml, 4 hours
# Procedure: (§4) THP-1 cells, a human monocyte/histiocyte cell line, were cultured in RPMI 1640 medium supplemented with 10% FCS, 50 units/ml penicillin, […] streptomycin, NEM and 2×10^−5 M β-mercaptoethanol. Cells were treated with 50 nM phorbol myristate acetate for 3 days. Cells were starved overnight in medium containing 0.25% FCS before being treated. Cells were stimulated with LPS (1 μg/ml) for 4 hours in phenol-free RPMI containing 0.25% FCS. Ligustilide (25 μM) was added to the culture medium concomitantly with the stimulus. […] LPS-stimulation induces the expression of a large variety of genes including those of inflammatory pathways. After 4 hours of stimulation we have evaluated the impact of ligustilide on the expression of inflammatory genes using quantitative real-time RT-PCR (reverse transcriptase polymerase chain reaction) technology (Table 2).
# IL-6 = experiment: as above; type: cell-based, human; conditions: THP-1, ligustilide 25 μM, LPS 1 μg/ml, 4 hours
# Procedure: as §4
# IL-1α = experiment: as above; type: cell-based, human; conditions: THP-1, ligustilide 25 μM, LPS 1 μg/ml, 4 hours
# Procedure: as §4
# TNF-α = experiment: as above; type: cell-based, human; conditions: THP-1, ligustilide 25 μM, LPS 1 μg/ml, 4 hours
# Procedure: as §4
# IL-8 = experiment: as above; type: cell-based, human; conditions: THP-1, ligustilide 25 μM, LPS 1 μg/ml, 4 hours
# Procedure: as §4
# MIP-3α = experiment: as above; type: cell-based, human; conditions: THP-1, ligustilide 25 μM, LPS 1 μg/ml, 4 hours
# Procedure: as §4
# MIP-2 = experiment: as above; type: cell-based, human; conditions: THP-1, ligustilide 25 μM, LPS 1 μg/ml, 4 hours
# Procedure: as §4
# kaolin-induced arthritis = experiment: Kaolin-induced arthritis in rats, gait score; type: in vivo; conditions: rat, 100 mg/kg oral; for Gait score: score from 0 to 3, mean of 10; for % improvement of gait score: vs control
# Procedure: Twenty male Sprague Dawley rats weighing 103 g to 132 g, were included in this study. They were housed in a temperature (19.5-24.5° C.) and relative humidity (45-65%) controlled room with a 12-h light/dark cycle, with ad libitum access to filtered tap-water and standard pelleted laboratory chow, throughout the study. Upon receipt at animal facilities, they were housed 5 per cage and at least a 5-day acclimatization period were observed before any testing. Animals were individually identified on the tail. Arthritis is induced by injection of a 10% kaolin suspension into the knee joint of the rat right hindpaw. In the vehicle-treated group, injection of kaolin suspension into the knee joint of the rat right hindpaw induced an impairment of the gait, evaluated by an increase of the gait score (score from 0 to 3). Gait of animals is used to measure the spontaneous painful behavior. Ligustilide (100 mg/kg) suspended in 1% methylcellulose (in a volume of 10 ml/kg) or vehicle alone were administered by oral route in a coded and random order, 30 min after kaolin injection. The assessment of score behavior was monitored every hour from 1.5 hours to 5.5 hours following drug dosing. The mean gait score was calculated from individual values at each time. The percentage of inhibition of the mean gait score as compared to the mean value of the control group was calculated 1.5, 2.5, 3.5, 4.5 hours and 5.5 hours after dosing.
# The results are expressed for each group as the mean of the gait scores of 10 animals per group.
# [3] = tested on: carrageenan-induced paw edema; experiment: Carrageenan-induced paw edema in rats; type: in vivo; conditions: rat, 100 mg/kg oral; for Paw edema volume: mean of 10
# Procedure: The anti-inflammatory activity of the compounds was evaluated in vivo in the carrageenan-induced paw edema rat model. This model has long been used to assess the anti-inflammatory properties of agents that inhibit prostaglandins, such as nonsteroidal anti-inflammatory drugs (NSAIDs) The model causes time-dependent edema formation following carrageenan administration into the sub-plantar surface of a rat paw. Twenty male Sprague-Dawley rats weighing 130 to 146 g were randomized in two groups. They were housed in a temperature (19.5-24.5° C.) and relative humidity (45-65%) controlled room with a 12-h light/dark cycle, with ad libitum access to filtered tap-water and standard pelleted laboratory chow throughout the study. They were housed 5 per cage and a 5-6-day acclimatization period was observed before any testing. Animals were individually identified on the tail. Ligustilide (100 mg/kg) suspended in 1% methylcellulose (in a volume of 10 mL/kg) or vehicle alone were administered by the oral route in a coded and random order after an overnight fast. One hour later, inflammation is induced by subplantar injection of a 2% carrageenan suspension into the right paw. The paw volume of each rat was measured in mL at the following time points: 0 h, 1.5 h, 3 h, and 4.5 h after the injection of carrageenan. The paw edema volume of each rat at each time point was expressed as the change from initial value. The anti-inflammatory effect on edema volume in treated-groups was expressed as % inhibition [(mean of vehicle-treated group paw edema volume−mean of the treated group paw edema volume)/mean of vehicle-treated group paw edema volume)×100]. All data of paw edema volume are expressed in mL as Mean of 10 rats in each group.
# [4] = tested on: nitric oxide (NO) production; experiment: Inhibition of nitric oxide production in LPS-stimulated RAW264.7 macrophages (Griess reaction); type: cell-based, murine; conditions: Mus musculus; RAW264.7, LPS 1 μg/ml, 24 hours
# Procedure: as §1
# RAW 264.7 cells: were cultured in Dulbecco's Modified eagle Medium (DMEM) supplemented with 10% fetal calf serum (FCS), 50 units/ml penicillin, 50 μg/ml streptomycin, L-glutamine and nonessential amino acids (NEM, Life Technologies, No. 11140). […] After 24 hours nitrite concentrations were measured in culture supernatants by the Griess reaction and secreted PGE2 was determined by Enzyme immunoassay (EIA) in unstimulated and LPS-stimulated RAW264.7 cells. […] The effects of compounds of the formula (I) on PGE2 production was also measured in the murine macrophage cell line RAW 264.7 (Table 1).
# [5] = RAW264.7, RAW 264.7, LPS 1 μg/ml, 24 hours
structure (smiles),measurement,setting,value
"CCCC[C@@H]1OC(=O)c2ccccc21 [3-Butylphthalide, 3S-Butylphthalide]",IC50,PGE2 production; [5],3 µM
CCC/C=C1\OC(=O)C2=C1CCC=C2 [Ligustilide],% reduction of adherence,[1]; TNF-α + 25 μM ligustilide,39%
same,Number of adherent cells,[1]; TNF-α + 25 μM ligustilide,61 ± 25
same,% reduction of adherence,[1]; TNF-α + 50 μM ligustilide,73%
same,Number of adherent cells,[1]; TNF-α + 50 μM ligustilide,27 ± 21
same,% reduction of expression (ICAM-1 mRNA),[2]; TNF-α + 25 μM ligustilide,58%
same,Relative ICAM-1 mRNA level,[2]; TNF-α + 25 μM ligustilide,25 ± 6 arbitrary units
same,% reduction of expression (ICAM-1 mRNA),[2]; TNF-α + 50 μM ligustilide,73%
same,Relative ICAM-1 mRNA level,[2]; TNF-α + 50 μM ligustilide,16 ± 1 arbitrary units
same,"Gene expression (in %) relative to IL-1β activated chondrocytes, MMP-9",MMP-9,33%
same,"Gene expression (in %) relative to IL-1β activated chondrocytes, MMP-13",MMP-13,50%
same,"Gene expression (in %) relative to IL-1β activated chondrocytes, Collagen 1",Collagen 1,115%
same,"Gene expression (in %) relative to IL-1β activated chondrocytes, MMP-3",MMP-3,2%
same,"Gene expression (in %) relative to IL-1β activated chondrocytes, Collagen 2",Collagen 2,184%
same,"Gene expression (in %) relative to IL-1β activated chondrocytes, MMP-1",MMP-1,17%
same,"Gene expression (in %) relative to LPS control, COX-2",COX-2,24.1%
same,"Gene expression (in %) relative to LPS control, IL-6",IL-6,52.3%
same,"Gene expression (in %) relative to LPS control, IL-1α",IL-1α,15.2%
same,"Gene expression (in %) relative to LPS control, TNF-α",TNF-α,50.6%
same,"Gene expression (in %) relative to LPS control, IL-8",IL-8,72.4%
same,"Gene expression (in %) relative to LPS control, MIP-3α",MIP-3α,67.2%
same,"Gene expression (in %) relative to LPS control, MIP-2",MIP-2,52.0%
same,IC50,PGE2 production; [5],3.2 µM
same,Gait score,kaolin-induced arthritis; 1.5 hours after dosing,0.3
same,% improvement of gait score,kaolin-induced arthritis; 1.5 hours after dosing,25%
same,Gait score,kaolin-induced arthritis; 2.5 hours after dosing,0.4
same,% improvement of gait score,kaolin-induced arthritis; 2.5 hours after dosing,43%
same,Gait score,kaolin-induced arthritis; 3.5 hours after dosing,0.6
same,% improvement of gait score,kaolin-induced arthritis; 3.5 hours after dosing,50%
same,Gait score,kaolin-induced arthritis; 4.5 hours after dosing,0.9
same,% improvement of gait score,kaolin-induced arthritis; 4.5 hours after dosing,53%
same,Gait score,kaolin-induced arthritis; 5.5 hours after dosing,1.3
same,% improvement of gait score,kaolin-induced arthritis; 5.5 hours after dosing,38%
same,Analgesic effect in comparison to the control group,"kaolin-induced arthritis; at 3.5, 4.5 and 5.5 hours after dosing",significant analgesic effect
same,% Inhibition of paw edema volume vs vehicle-treated group,[3]; 1.5 h after carrageenan,29%
same,Paw edema volume,[3]; 1.5 h after carrageenan,0.17 mL
same,% Inhibition of paw edema volume vs vehicle-treated group,[3]; 3 h after carrageenan,27%
same,Paw edema volume,[3]; 3 h after carrageenan,0.32 mL
same,% Inhibition of paw edema volume vs vehicle-treated group,[3]; 4.5 h after carrageenan,11%
same,Paw edema volume,[3]; 4.5 h after carrageenan,0.40 mL
same,IC50,[4],12.2 ± 3.1 µM
"CCC/C=C1\OC(=O)c2ccccc21 [N-Butylidenephthalide, E + Z-3-Butylidenephthalide]",IC50,"PGE2 production; RAW264.7, 24 h",3 µM
